Test results: patent US20240317727A1 (Duke University, priority 2018, published 2024)

Columns and labels:
[1] = tested on: C4-2 prostate cancer cells; experiment: C4-2 cell proliferation, Cell Titre Glo; format: cell-based; conditions: Homo sapiens, 48-hour period, 9-point dilution series, read-out: Cell Viability IC50
Protocol: Next, cell viability of C4-2 prostate cancer cells was determined. C4-2 prostate cancer cells were grown in RMPI-1640 (no L-glutamine, Gibco 21870076) supplemented with 10% fetal bovine […] (non-heat-inactivated, Cytiva Hyclone SH30071.03). […] A 9-point dilution series was used to assess the ability of each compound to inhibit the growth of C4-2 prostate cancer cells over a 48-hour period, as compared to negative control solvent, DMSO. Cell proliferation was measured by the Cell Titre Glo assay using 384 well microtiter plate reader to quantitate luminescence. The IC50 was determined from the values obtained.

[2] = target: T1, purified recombinant human HSF1 (HSF1 DNA binding domain) (Homo sapiens, UniProt Q00613); experiment: Melting temperature of HSF1 DBD with HSF1 degrader compounds (Sypro orange); conditions: 12.5 micromolar compound, 5 micromolar HSF1 DBD, compared to DMSO; read-out: ΔTm (° C.)
T1 sequence (Q00613 15-120): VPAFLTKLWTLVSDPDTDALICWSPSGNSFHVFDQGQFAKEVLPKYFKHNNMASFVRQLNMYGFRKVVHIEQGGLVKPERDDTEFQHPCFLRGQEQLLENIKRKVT
Protocol: The melting temperature (ΔTm) for purified recombinant human HSF1 (HSF1 DNA binding domain) was determined in the presence of HSF1 degrader compounds shown in Table 5 and compared to the solvent DMSO. Sypro orange dye was added to the HSF1 DBD (5 micromolar final concentration) in buffer, mixed and distributed to wells in 384 well microtiter plates. HSF1 degrader compound (12.5 micromolar) or DMSO solvent was added to three replicate wells per compound concentration, mixed and plates loaded into a Quant Studio thermnocycler and run on a temperature gradient from 25° C. to 85° C. with increments of 0.5° C. steps. Melting curves were obtained and analyzed using the ThermnoFisher Shift Software 1.4 fitted with a Boltzmann equation to determine the change in melting temperature of the protein in the presence of DMSO as compared to compound. The difference in the melting temperature under these two conditions was assigned as the change in melting temperature of ΔTm.

[3] = target: T2, recombinant HSF1 DNA-binding domain (DBD) (Homo sapiens, UniProt Q00613); experiment: Differential Scanning Fluorimetry (DSF), HSF1 DBD melting temperature; conditions: 5 μM HSF1 DBD, 25PM Compound, positive = stabilizes, negative = destabilizes HSF1
T2 sequence (Q00613 15-120): T1 sequence (Q00613 15-120)

Compound | ΔTm at 12.5 µM [2] [°C] | ΔTm at 25 µM ([3]; Table 1) [°C] | also measured
N#Cc1ccc(NC(=O)Nc2ccc3c(c2)S(=O)(=O)CCC3)cc1 [Compound 279] | 1.29 | – | IC50 [1]: > 10 µM
N#Cc1ccc(NC(=O)Nc2ccc(C#N)cc2)cc1 [Compound 253, 1,3-bis(4-cyanophenyl)urea] | 1.91 | – | IC50 [1]: > 10 µM
N#Cc1cnc(NC(=O)Nc2ccc3c(c2)S(=O)(=O)C=C3)nc1 [Compound 270, 1-(5-cyanopyrimidin-2-yl)-3-(1,1-dioxidobenzo[b]thiophen-6-yl)urea] | 0.01 | – | IC50 [1]: > 10 µM
N#Cc1ccc(NC(=O)Nc2ccc3c(c2)S(=O)(=O)C=C3)cc1C1CCCC1 [Compound 260, 1-(4-cyano-3-cyclopentylphenyl)-3-(1,1-dioxidobenzo[b]thiophen-6-yl)urea] | 0.5 | – | –
CN(C)CCc1ccc(NC(=O)Nc2ccc(C#N)cc2)cc1S(=O)(=O)C(F)(F)F [Compound 287, 1-(4-cyanophenyl)-3-(4-(2-(dimethylamino)ethyl)-3-((trifluoromethyl)sulfonyl)phenyl)urea] | – | – | IC50 [1]: > 10 µM
N#Cc1ccc(NC(=O)Nc2ccc3c(c2)C=CS3(=O)=O)s1 [Compound 272, 1-(5-cyanothiophen-2-yl)-3-(1,1-dioxidobenzo[b]thiophen-5-yl)urea] | 0.86 | – | –
N#Cc1ccc(NC(=O)Nc2ccc3c(c2)S(=O)(=O)C=C3)cc1C1CC1 [Compound 259, 1-(4-cyano-3-cyclopropylphenyl)-3-(1,1-dioxidobenzo[b]thiophen-6-yl)urea] | 1.25 | – | –
CCc1cc(NC(=O)Nc2ccc3c(c2)S(=O)(=O)C=C3)ccc1C#N [Compound 262, 1-(4-cyano-3-ethylphenyl)-3-(1,1-dioxidobenzo[b]thiophen-6-yl)urea] | 2.47 | – | –
N#Cc1ccc(NC(=O)Nc2cccc([N+](=O)[O-])c2)cc1 [Compound 273, 1-(4-cyanophenyl)-3-(3-nitrophenyl)urea] | 1.15 | – | –
N#Cc1ccc(NC(=O)Nc2cccc(S(=O)(=O)C(F)(F)F)c2)cc1 [Compound 275, 1-(4-cyanophenyl)-3-(3-((trifluoromethyl)sulfonyl)phenyl)urea] | 1.31 | – | –
CS(=O)(=O)Nc1cccc(NC(=O)Nc2ccc(C#N)cc2)c1 [Compound 276, N-(3-(3-(4-cyanophenyl)ureido)phenyl)methanesulfonamide] | 0.12 | – | –
N#Cc1ccc(NC(=O)Nc2ccc3c(c2)C(=O)CCC3)cc1 [Compound 278, 1-(4-cyanophenyl)-3-(8-oxo-5,6,7,8-tetrahydronaphthalen-2-yl)urea] | -0.95 | – | –
CC(C)c1cc(NC(=O)Nc2ccc3c(c2)S(=O)(=O)C=C3)ccc1C#N [Compound 263, 1-(4-cyano-3-isopropylphenyl)-3-(1,1-dioxidobenzo[b]thiophen-6-yl)urea] | 1.25 | – | –
N#Cc1ccc(NC(=O)Nc2cccc(-c3nnn[nH]3)c2)cc1 [Compound 280, 1-(3-(1H-tetrazol-5-yl)phenyl)-3-(4-cyanophenyl)urea] | 0.01 | – | –
CC(=O)N1CCc2ccc(NC(=O)Nc3ccc(C#N)cc3)cc21 [Compound 281, 1-(1-acetylindolin-6-yl)-3-(4-cyanophenyl)urea] | -1.92 | – | –
O=C(Nc1ccc(Cl)cc1)Nc1ccc(Cl)c([N+](=O)[O-])c1 [Compound 048, 1-(4-chloro-3-nitrophenyl)-3-(4-chlorophenyl)urea] | – | – | ΔTm at 25 µM ([3]; Table 3): 2.61 °C
O=C(Nc1ccc(Cl)cc1)Nc1ccc(Cl)c(Cl)c1 [Compound 0001] | – | 4.78 | –
O=C(Nc1ccc(F)cc1)Nc1ccc(Cl)nc1 [Compound 0090, 1-(6-chloro-3-pyridyl)-3-(4-fluorophenyl) urea] | – | 0.67 | –
O=C(Nc1ccc(F)c(F)c1)Nc1ccc(Cl)c([N+](=O)[O-])c1 [Compound 034, 1-(4-chloro-3-nitrophenyl)-3-(3,4-difluorophenyl)urea] | – | – | ΔTm at 25 µM ([3]; Table 3): 5.7 °C
COc1cc2cc(N(C)CCCNC(=O)C3CCCO3)cc(N)c2cc1OC (stereo not drawn) [Compound 0088] | – | -3.02 | –
O=C(Nc1ccc(Cl)c([N+](=O)[O-])c1)Nc1ccc(F)cc1C1(C(F)(F)F)N=N1 [Compound 079, 1-(4-chloro-3-nitro-phenyl)-3-[4-fluoro-2-[3-(trifluoromethyl)diazirin-3-yl]phenyl]urea] | – | – | ΔTm at 25 µM ([3]; Table 3): 2.25 °C
N#Cc1ccc(NC(=O)Nc2ccc3c(c2)CCCS3(=O)=O)cc1 [Compound 282, 1-(4-cyanophenyl)-3-(1,1-dioxidothiochroman-6-yl)urea] | -0.97 | – | –
Cc1c2oc3c(C)c(O)c(I)cc3c(-c3c(Cl)c(Cl)c(Cl)c(Cl)c3C(=O)O)c-2cc(I)c1=O [Compound 0100] | – | -7.52 | –

Compound | ΔTm at 12.5 µM [2] [°C] | ΔTm at 25 µM ([3]; Table 1) [°C] | also measured
O=C(Nc1cccc(C(F)(F)F)c1)Nc1ccc2nonc2c1 [Compound 0035] | – | 6.44 | –
CN(C(=O)Nc1ccc(Cl)c([N+](=O)[O-])c1)c1ccc(F)cc1 [Compound 0023, 3-(4-chloro-3-nitro-phenyl)-1-(4-fluorophenyl)-1-methyl-urea] | – | 0.67 | –
Cc1ccc(CNC(=O)CSc2nnc(-c3cccc(N)c3)n2-c2ccccc2)cc1 [Compound 0004] | – | -9.46 | –
Cc1ccc(CNC(=O)CSc2nnc(-c3ccc(C)cc3)n2-c2ccccc2)cc1 [Compound 0025] | – | -9.21 | –
CC(=O)NC1C(O)OC(OS(=O)(=O)O)C(O)C1OC1CC(C(=O)O)C(O)C(O)C1O (stereo not drawn) [Compound 0041] | – | -3.11 | –
Cc1ccc(NC(=O)Nc2cccc(Cl)c2)cc1 [Compound 0068, 1-(3-chlorophenyl)-3-(p-tolyl)urea] | – | 2.75 | –
N#Cc1ccc(NC(=O)Nc2cccc(C(F)(F)F)c2)cc1 [Compound 274, 1-(4-cyanophenyl)-3-(3-(trifluoromethyl)phenyl)urea] | 1.41 | – | –
O=C(Nc1ccc(F)cc1)Nc1cccc([N+](=O)[O-])c1 [Compound 076, 1-(4-fluorophenyl)-3-(3-nitrophenyl)urea] | – | – | ΔTm at 25 µM ([3]; Table 3): 2.61 °C
COc1cc(C(=O)Oc2c(Cl)cc(Cl)cc2/C=N\c2cccc(C(F)(F)F)c2)cc(OC)c1OC [Compound 0070] | – | -7.24 | –
Cc1ccc(NC(=O)Nc2ccc(Cl)c([N+](=O)[O-])c2)cc1 [Compound 046, 1-(4-chloro-3-nitrophenyl)-3-(p-tolyl)urea] | – | – | ΔTm at 25 µM ([3]; Table 3): 4.3 °C
O=[N+]([O-])c1cc(NC2=NS(=O)(=O)N=C2Nc2ccc(F)cc2)ccc1Cl [Compound 080, N3-(4-chloro-3-nitro-phenyl)-N4-(4-fluorophenyl)-1,1-dioxo-1,2,5-thiadiazole-3,4-diamine] | – | – | ΔTm at 25 µM ([3]; Table 3): 1.6 °C
N=C(Nc1ccc(F)cc1)Nc1ccc(Cl)c(C(F)(F)F)c1 [Compound 032, 1-[4-chloro-3-(trifluoromethyl)phenyl]-3-(4-fluorophenyl)guanidine] | – | – | ΔTm at 25 µM ([3]; Table 3): 0.75 °C
COc1ccc(NC(=O)Nc2ccc(C)cc2)cc1 [Compound 011, 1-(4-methoxyphenyl)-3-(p-tolyl)urea] | – | – | ΔTm at 25 µM ([3]; Table 3): 2.61 °C
CC(C)(C)c1ccc(NC(=O)Nc2ccc(Cl)c([N+](=O)[O-])c2)cc1 [Compound 0105, 1-(4-(tert-butyl)phenyl)-3-(4-chloro-3-nitrophenyl)urea] | – | 3.2 | –
CCOC(=O)c1cc(C#N)c(Sc2nnc(SC)s2)nc1C(F)(F)F [Compound 0055] | – | -9.69 | –
O=c1c(Nc2ccc(F)cc2)c(Nc2ccc(Cl)c([N+](=O)[O-])c2)c1=O [Compound 002, 3-(4-chloro-3-nitro-anilino)-4-(4-fluoroanilino)cyclobut-3-ene-1,2-dione] | – | – | ΔTm at 25 µM ([3]; Table 3): 1.9 °C
O=c1c(Nc2ccc(F)c(F)c2)c(Nc2ccc(Cl)c(C(F)(F)F)c2)c1=O [Compound 092, 3-[4-chloro-3-(trifluoromethyl)anilino]-4-(3,4-difluoroanilino)cyclobut-3-ene-1,2-dione] | – | – | ΔTm at 25 µM ([3]; Table 3): 2.33 °C
Cc1ccc(CNC(=O)CSc2nnc(-c3ccccc3)n2-c2ccc(C)c(C)c2)cc1 [Compound 0115] | – | -9.91 | –
O=C(N/C=C/c1ccsc1)Nc1cc(Cl)ccc1F [Compound 0010] | – | 5.43 | –
O=[N+]([O-])c1cc(C(F)(F)F)cc([N+](=O)[O-])c1Oc1ccc(I)cc1 [Compound 0077] | – | 2.5 | –
O=C(Nc1ccc(Cl)c([N+](=O)[O-])c1)Nc1ccc(F)c(C2(C(F)(F)F)N=N2)c1 [Compound 094, 1-(4-chloro-3-nitro-phenyl)-3-[4-fluoro-3-[3-(trifluoromethyl)diazirin-3-yl]phenyl]urea] | – | – | ΔTm at 25 µM ([3]; Table 3): 2.92 °C
O=C(Nc1ccc(F)cc1)Nc1ccc(Cl)c(S(=O)(=O)C(F)(F)F)c1 [Compound 054, 1-[4-chloro-3-(trifluoromethylsulfonyl)phenyl]-3-(4-fluorophenyl)urea] | – | – | ΔTm at 25 µM ([3]; Table 3): 2.9 °C
